# Literature values in patent publication US12115137B2, “Synergistic combinations of atorvastatin and cannabidiol (CBD)” (Indication BioScience LLC, priority 2016, dated 2024).
# Experiments:
# [1] = with potent CYP3A4 inhibitors such as itraconazole
# CYP2C19 = CYP2C19 (Homo sapiens, UniProt P33261); conditions: Jiang et al. 2013
# CYP2C9 = CYP2C9 (Homo sapiens, UniProt P11712); conditions: Jiang at 333 and references cited
# CYP3A4 = CYP3A4 (Homo sapiens, UniProt P08684); conditions: Yamaori et al. 2011
# [2] = not given; remark: listed apart in the source
# [3] = oral, humans
# Chain of CYP2C9 (P11712 whole entry): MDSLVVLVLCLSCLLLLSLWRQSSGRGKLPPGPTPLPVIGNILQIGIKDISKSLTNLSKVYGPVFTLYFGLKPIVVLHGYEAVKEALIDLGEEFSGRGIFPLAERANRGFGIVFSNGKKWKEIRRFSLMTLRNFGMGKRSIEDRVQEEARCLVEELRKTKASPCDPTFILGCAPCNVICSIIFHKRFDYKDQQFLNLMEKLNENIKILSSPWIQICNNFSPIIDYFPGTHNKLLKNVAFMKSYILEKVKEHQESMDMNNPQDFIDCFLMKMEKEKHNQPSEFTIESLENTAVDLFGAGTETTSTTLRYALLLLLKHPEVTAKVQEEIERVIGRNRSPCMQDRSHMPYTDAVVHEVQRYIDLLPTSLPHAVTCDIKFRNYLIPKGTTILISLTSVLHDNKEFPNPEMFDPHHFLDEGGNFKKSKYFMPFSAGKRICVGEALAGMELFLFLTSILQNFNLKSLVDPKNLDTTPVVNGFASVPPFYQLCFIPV
# Chain of CYP3A4 (P08684 whole entry): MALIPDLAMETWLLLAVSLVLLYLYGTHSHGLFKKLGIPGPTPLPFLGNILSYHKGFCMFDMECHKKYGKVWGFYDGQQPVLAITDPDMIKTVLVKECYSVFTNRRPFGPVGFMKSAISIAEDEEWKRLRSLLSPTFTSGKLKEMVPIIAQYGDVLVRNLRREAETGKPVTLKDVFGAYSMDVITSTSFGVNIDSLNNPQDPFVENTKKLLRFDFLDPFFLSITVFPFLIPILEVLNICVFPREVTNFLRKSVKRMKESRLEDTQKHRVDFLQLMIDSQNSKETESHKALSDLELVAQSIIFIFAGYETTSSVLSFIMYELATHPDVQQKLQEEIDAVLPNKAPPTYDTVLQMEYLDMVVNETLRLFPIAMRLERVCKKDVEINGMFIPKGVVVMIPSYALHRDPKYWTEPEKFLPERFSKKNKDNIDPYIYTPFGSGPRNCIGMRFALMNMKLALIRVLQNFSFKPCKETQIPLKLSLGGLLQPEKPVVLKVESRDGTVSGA
# Chain of CYP2C19 (P33261 whole entry): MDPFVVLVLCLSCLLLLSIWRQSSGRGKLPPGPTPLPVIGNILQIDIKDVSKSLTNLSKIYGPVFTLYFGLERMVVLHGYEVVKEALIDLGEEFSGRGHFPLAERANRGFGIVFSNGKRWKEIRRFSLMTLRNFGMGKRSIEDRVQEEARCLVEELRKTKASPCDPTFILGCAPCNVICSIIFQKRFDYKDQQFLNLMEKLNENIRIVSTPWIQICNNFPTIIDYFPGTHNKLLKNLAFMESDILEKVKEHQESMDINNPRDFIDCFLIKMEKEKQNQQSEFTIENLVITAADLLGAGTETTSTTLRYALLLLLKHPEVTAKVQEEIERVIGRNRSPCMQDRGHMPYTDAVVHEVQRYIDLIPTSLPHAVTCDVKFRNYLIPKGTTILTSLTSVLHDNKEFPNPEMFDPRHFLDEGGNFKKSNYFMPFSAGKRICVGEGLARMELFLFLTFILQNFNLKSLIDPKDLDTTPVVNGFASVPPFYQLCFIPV
smiles,measurement,setting,value
COCc1c(C(C)C)nc(C(C)C)c(/C=C/[C@@H](O)C[C@@H](O)CC(=O)O)c1-c1ccc(F)cc1 [cerivastatin],deaths attributed to kidney failure from drug-related rhabdomyolysis,before market withdrawal in 2001,52 deaths
same,rate of fatal rhabdomyolysis relative to other approved statins,compared with other approved statins,ten times more common
CC(C)c1c(C(=O)Nc2ccccc2)c(-c2ccccc2)c(-c2ccc(F)cc2)n1CC[C@@H](O)C[C@@H](O)CC(=O)O [atorvastatin],increase in statin serum concentration,[1],two- to four-fold
"C=C(C)[C@@H]1CCC(C)=C[C@H]1c1c(O)cc(CCCCC)cc1O [CBD, 2-[(1R,6R)-6-isopropenyl-3-methylcyclohex-2-en-1-yl]-5-pentylbenzene-1,3-diol]",inhibition of CYP2C19,CYP2C19,potent inhibitor
same,inhibition of CYP2C9,CYP2C9,potent inhibitor
same,inhibition of CYP3A4,CYP3A4,potent inhibitor
same,increase in plasma concentration of CBD,"[2]; with ketoconazole, a strong inhibitor of CYP3A4",about two-fold
same,reduction of CBD levels,"[2]; with rifampin, a CYP3A4 inducer",50-60%
same,bioavailability of CBD administered orally,[3],approximately 6%
